According to US20070275382A1, “Biomarkers for the Efficacy of Somatostatin Analogue Treatment” (priority 2003, published 2007):
Where “and” joins values, the source holds several entries; their conditions need not be identical. Equal entries are not always repeated. *1 amine or outer side, *2 acyl side, *3 side chain or, on linkers, in order; H or OH if unused. Where a SMILES comes first, the peptide text is derived from it. Side-chain parts run from the residue outwards. [ ]: non-standard residue; d: D form. The star is where a group is joined. Ethylenediamine = C(CN[*:2])N[*:1]; Hyp = O=C(O)[CH]1C[CH](O)CN1; Phg = N[CH](C(=O)O)c1ccccc1; CO = O=C([*:1])[*:2]; Bn = c1ccc(C*)cc1

System: Pituitary gland
Assay: Microarray gene expression profiling (HG-U95A), pituitary
Format: in vivo, cynomolgus monkeys
Protocol: Origin of tissue and processing. Male and female cynomolgus monkeys received subcutaneously pasireotide (100 μg/animal/day) or the vehicle for 14 days. On day 15, all animals were sacrificed and tissues for RNA extraction were immediately snap-frozen and kept at −80° C. until processing.
RNA expression profiling was conducted by means of the HG-U95A gene expression probe array (Affymetrix; Santa Clara, Calif. USA), containing more than 12,600 probe sets interrogating primarily full-length human genes and also some control probe sets. The experiment was conducted according to the recommendations of the manufacturer. Briefly, total RNA was obtained by acid guanidinium thiocyanate-phenol-chloroform extraction (Trizol®, Invitrogen Life Technologies, San Diego, Calif. USA) from each frozen tissue section. The total RNA was then purified on an affinity resin (Rneasy®, Qiagen) and quantified. Double stranded cDNA was synthesized with a starting amount of approximately 5 μg full-length total RNA using the Superscript® Choice System (Invitrogen Life Technologies, Carlsbad, Calif. USA) in the presence of a T7-(dT)24 DNA oligonucleotide primer. Following synthesis, the cDNA was purified by phenol/chloroform/isoamyl alcohol extraction and ethanol precipitation. The purified cDNA was then transcribed in vitro using the BioArray® High Yield RNA Transcript Labeling Kit (ENZO, Farmingdale, N.Y. USA) in the presence of biotinylated ribonucleotides form biotin labelled cRNA. The labelled cRNA was then purified on an affinity resin (Rneasy®, Qiagen), quantified and fragmented. An amount of approximately 10 μg labelled cRNA was hybridized for 16 hours at 45° C. to an expression probe array. The array was then washed and stained twice with streptavidin-phycoerythrin (Molecular Probes,) using the GeneChip® Fluidics Workstation 400 (Affymetrix, Santa Clara, Calif. USA). The array was then scanned twice using a confocal laser scanner (GeneArray® Scanner, Agilent, Palo Alto, Calif. USA) resulting in one scanned image. This resulting “.dat-file” was processed using the MAS4 program (Affymetrix) into a “.cel-file”. The “.cel file” was captured and loaded into the Affymetrix GeneChip® Laboratory Information Management System (LIMS). The LIMS database is connected to a UNIX Sun Solaris server through a network filing system that allows for the average intensities for all probes cells (CEL file) to be downloaded into an Oracle database (NPGN). Raw data was converted to expression levels using a “target intensity” of 150. The data were evaluated for quality control and loaded in the GeneSpring® software 4.2.4 (Silicon Genetics, Calif. USA) for analysis.
On the human Affymetrix HGU95Av2 chip, probe sets for individual genes contain 20 oligonucleotide pairs, each composed of a “perfect match” 25-mer and a “mismatch” 25-mer differing from the “perfect” match oligonucleotide at a single base. After probe labelling, hybridization, and laser scanning, the expression level was estimated by averaging the differences in signal intensity measured by oligonucleotide pairs of a given probe (AvgDiff value). The fold changes and directions were calculated for selected genes, from the differences of the AvgDiff values between controls and treated.
To identify genes that were impacted by pasireotide, the dataset was initially filtered to exclude in a first wave of analysis, genes whose values were systematically in the lower expression ranges where the experimental noise is high (at least 80 in a number of experiments corresponding to the smallest number of replicas of any experimental point). In a second round of selection a threshold p-value of 0.05 (based on a t-test) identified differences between treated and control based on a two component error model (Global Error Model) and, whenever possible, with a stepdown correction for multi-hypothesis testing (Benjamini and Hochberg false discovery rate). […]

[1] = ↑ vs control, 100 μg/animal/day s.c., 14 days

NCCCCC1NC(=O)C(Cc2c[nH]c3ccccc23)NC(=O)C(c2ccccc2)NC(=O)C2CC(OC(=O)NCCN)CN2C(=O)C(Cc2ccccc2)NC(=O)C(Cc2ccc(OCc3ccccc3)cc2)NC1=O (stereo not drawn) [Pasireotide, cyclo[4-(NH2—C2H4—NH—CO—O)Pro-Phg-DTrp-Lys-Tyr(4-Bzl)-Phe]] (cyclo(F[Hyp]([CO-Ethylenediamine])[Phg]WKY(Bn)); configuration not given here)
ATPase, H+/K+ exchanging, α polypeptide expression level, AvgDiff (range) (0.1 mg/animal/14 day): 20
ATPase, Na+/K+ transporting, α 2 (+) polypeptide expression level, AvgDiff (range) (0.1 mg/animal/14 day): 184 (69 to 325)
ATPase, Na+/K+ transporting, β 3 polypeptide expression level, AvgDiff (range) (0.1 mg/animal/14 day): 610 (335 to 949)
BCL2-antagonist of cell death expression level, AvgDiff (range) (0.1 mg/animal/14 day): 69 (42 to 89)
BCL2-associated athanogene expression level, AvgDiff (range) (0.1 mg/animal/14 day): 318 (235 to 409)
Bax gamma expression level, AvgDiff (range) (0.1 mg/animal/14 day): 326 (221 to 448)
Cdk inhibitor 2C (p18, inhibits CDK4) expression level, AvgDiff (range) (0.1 mg/animal/14 day): 184 (140 to 229)
Cdk inhibitor 2D (p19, inhibits CDK4) expression level, AvgDiff (range) (0.1 mg/animal/14 day): 99 (83 to 118)
Cell division cycle 25B expression level, AvgDiff (range) (0.1 mg/animal/14 day): 162 (134 to 187)
Core-binding factor, runt domain, α subunit 2; translocated to, 1; cyclin D-related expression level, AvgDiff (range) (0.1 mg/animal/14 day): 491 (251 to 677)
Cyclin D3 expression level, AvgDiff (range) (0.1 mg/animal/14 day): 338 (202 to 446)
Cyclin F expression level, AvgDiff (range) (0.1 mg/animal/14 day): 74 (48 to 132)
Dual specificity phosphatase 8 expression level, AvgDiff (range) (0.1 mg/animal/14 day): 170 (67 to 238)
Forkhead box O3A expression level, AvgDiff (range) (0.1 mg/animal/14 day): 257 (186 to 324)
GLUR 2, precursor expression level, AvgDiff (range) (0.1 mg/animal/14 day): 59 (20 to 177)
GR expression level, AvgDiff (range) (0.1 mg/animal/14 day): 109 (51 to 215)
IGF-2 expression level, AvgDiff (range) (0.1 mg/animal/14 day): 70 (20 to 150)
IGFBP, acid labile subunit expression level, AvgDiff (range) (0.1 mg/animal/14 day): 83 (20 to 110)
IP-4-phosphatase, type 1, isoform b expression level, AvgDiff (range) (0.1 mg/animal/14 day): 177 (107 to 232)
K+ channel, subfamily K, member 3 (TASK) expression level, AvgDiff (range) (0.1 mg/animal/14 day): 26 (20 to 43)
K+ voltage-gated channel, Shab-related subfamily, member 1 expression level, AvgDiff (range) (0.1 mg/animal/14 day): 22 (20 to 31)
MAPKKK5 expression level, AvgDiff (range) (0.1 mg/animal/14 day): 278 (221 to 351)
Neuroblastoma-amplified protein expression level, AvgDiff (range) (0.1 mg/animal/14 day): 237 (201 to 258)
PI transfer protein, β expression level, AvgDiff (range) (0.1 mg/animal/14 day): 42 (34 to 50)
PI-3-kinase, catalytic, α polypeptide expression level, AvgDiff (range) (0.1 mg/animal/14 day): 21 (20 to 24)
PI-3-kinase, catalytic, δ polypeptide expression level, AvgDiff (range) (0.1 mg/animal/14 day): 34 (20 to 67)
PKC inhibitor expression level, AvgDiff (range) (0.1 mg/animal/14 day): 3,333 (2,339 to 3,878) and 3,332 (2,339 to 3,878)
PLC, γ 1 (formerly subtype 148) expression level, AvgDiff (range) (0.1 mg/animal/14 day): 40 (20 to 63)
PP 1, regulatory (inhibitor) subunit 5 expression level, AvgDiff (range) (0.1 mg/animal/14 day): 75 (60 to 90)
PTP, receptor type, T expression level, AvgDiff (range) (0.1 mg/animal/14 day): 101 (48 to 129)
Phosphatase and tensin homolog (mutated in multiple advanced cancers 1) expression level, AvgDiff (range) (0.1 mg/animal/14 day): 36 (20 to 63)
Programmed cell death 6 expression level, AvgDiff (range) (0.1 mg/animal/14 day): 635 (513 to 747)
Putative Ca++ transporting ATPase expression level, AvgDiff (range) (0.1 mg/animal/14 day): 101 (84 to 112)
RAB 5C, member RAS oncogene family expression level, AvgDiff (range) (0.1 mg/animal/14 day): 162 (109 to 212)
Rab geranylgeranyltransferase, α subunit expression level, AvgDiff (range) (0.1 mg/animal/14 day): 104 (70 to 172)
Rab geranylgeranyltransferase, βsubunit expression level, AvgDiff (range) (0.1 mg/animal/14 day): 284 (246 to 374)
S-phase response (cyclin-related) expression level, AvgDiff (range) (0.1 mg/animal/14 day): 129 (111 to 148)
SHB adaptor protein (a Src homology 2 protein) expression level, AvgDiff (range) (0.1 mg/animal/14 day): 38 (20 to 55)
SSTR3 expression level, AvgDiff (range) (0.1 mg/animal/14 day): 57 (20 to 90)
ANP (atrial natriuretic peptide precursor B) transcript fold change [1]: ↑ x2
ATP(GTP)-binding protein transcript fold change [1]: protein ↑ x1.5
ATPase, Ca++ transporting cardiac muscle, slow twitch 2 transcript fold change [1]: ↑ x1.5
ATPase, Na+/K+ transporting, α 2(+) polypeptide transcript fold change [1]: polypeptide ↑ x2.5
ATPase, Na+/K+ transporting, β 3 polypeptide transcript fold change [1]: polypeptide ↑ x2.5
Adrenomedullin transcript fold change [1]: Adrenomedullin ↑ x2.5
BCL2-antagonist of cell death transcript fold change [1]: cell death ↑ x2
BCL2-associated athanogene transcript fold change [1]: athanogene ↑ x2
BCL2/adenovirus E1B 19 kD-interacting protein 3 transcript fold change [1]: 3 ↑ x1.5
Bax γ transcript fold change [1]: Bax γ ↑ x1.5
Brain cannabinoid receptor 1 transcript fold change [1]: receptor 1 ↑ x2
Butyrate response factor 2 (EGF-response factor 2) transcript fold change [1]: factor 2) ↑ x3
CC chemokines STCP-1 transcript fold change [1]: STCP-1 ↑ x1.5
Calcium/calmodulin-dependent protein kinase I transcript fold change [1]: kinase I ↑ x2.5
Cdki2C (p18, inhibits CDK4) transcript fold change [1]: CDK4) ↑ x2
Cdki2D (p19, inhibits CDK4) transcript fold change [1]: CDK4) ↑ x1.5
Cell division cycle 25B transcript fold change [1]: ↑ x5
Core-binding factor, runt domain, α subunit 2; translocated to, 1; cyclin D-related transcript fold change [1]: cyclin D-related ↑ x3
Cyclin D3 transcript fold change [1]: Cyclin D3 ↑ x2.5
Forkhead box H1 transcript fold change [1]: Forkhead box H1↑ x2
G protein-coupled receptor, family C, group 5, member B transcript fold change [1]: group 5, member B ↑ x2
G-protein coupled receptor 9 transcript fold change [1]: receptor 9 ↑ x2.5
GABA-B R 1, isoform a precursor transcript fold change [1]: ↑ x1.5
